The source of these data is patent US11135290B2, “Fucosyllactose as breast milk identical non-digestible oligosaccharide with new functional benefit” (N.V. Nutricia, priority 2009, dated 2021).

Marks after values point to notes of the source that are not given here.

Common to all, as to type: in vivo, C57BL/6 mice
For one assay, the system named is DTH response. Description: DTH response after Influvac vaccination. Particulars: dietary supplementation, vaccinated mice; TH1-dependent parameter. Here is the method: (§1) 6-8 Weeks old female C57BL/6 mice (Charles River) received semi-purified AIN-93G-based diets (Research Diet Service, Wijk bij Duurstede, the Netherlands), comprising
(§2) All groups were compared to the unsupplemented control diet. Dietary supplementation started 14 days before the first vaccination and lasted until the end of the experiment, 31 days after the first vaccination.
Vaccination experiments were performed using Influvac (Solvay Pharmaceuticals, Weesp, the Netherlands) from season 2005/2006. The mice received a primary vaccination and a booster vaccination, consisting of a subcutaneous (sc) injection of a 1:1 mix of vaccine and adjuvant in a total volume of 100 μl. The booster vaccination was given at 21 days after the primary vaccination. The experiments ended 10 days after booster vaccination. Blood samples were taken at the end of the experiment. […] The percentage of specific ^51Cr release was calculated as the percentage of specific lysis=(experimental release−spontaneous release)/(total detergent release−spontaneous release)×100. […]
(§3) Statistical analysis was performed using GraphPadPrism software. Statistical differences between test and control groups were analysed by ANOVA and post hoc Dunnett's test if multiple groups were compared to a single (control) group. […]

Assay [1] concerns regulatory T cells (Treg). Description: Percentage of regulatory T cells (Treg) by flow cytometry. Particulars: dietary supplementation, vaccinated mice.
Description: All groups were compared to the unsupplemented control diet. Dietary supplementation started 14 days before the first vaccination and lasted until the end of the experiment, 31 days after the first vaccination. […]
The percentage of regulatory T cells (Treg) was determined by flow cytometry (FACSCalibur) using allophycocyanin (APC-)labelled anti-mouse CD3 mAb, Pe-Cy5-labeled anti-mouse CD4 mAb and phycoerythrin (PE)-labelled anti-mouse CD25 mAb in combination with intracellular staining of fluorescein-isotiocyanate (FITC)-labelled Foxp3 mAb, according to the instructions offered by the manufactures (eBiosciences, San Diego, Calif.).
The test system of a further assay is YAC-1 target cells. Description: NK cell cytotoxicity in spleen cell suspensions, 51Cr release assay. Particulars: mouse splenocytes, dietary supplementation.
Description: as §1
1) 2 wt % beta-galacto-oligosaccharide (GOS; source Vivinal GOS, Borculo Domo), fructo-oligosaccharide (FOS; source RaftilineHP, Orafti) and galacturonic acid oligosaccharide (Source AOS) in a 9:1:1.1 ratio. AOS are produced from pectin (Stidzucker AG, Mannheim, Germany), with a DP of 1-20. It consists of approximately 75% galacturonic acid oligomers, based on total weight;
2) 1 wt % lactoneotetraose (LNnT),
3) 1 wt % 3′-sialyl lactose (3′-SL), or
4) 1 wt % 2′-fucosyllactose (2′-FL).
as §2
Vaccination experiments were performed using Influvac (Solvay Pharmaceuticals, Weesp, the Netherlands) from season 2005/2006. […] The percentage of specific ^51Cr release was calculated as the percentage of specific lysis=(experimental release−spontaneous release)/(total detergent release−spontaneous release)×100. […]
as §3

With `CC(=O)N[C@H]1[C@H]([C@H](O)[C@H](O)CO)O[C@@](O[C@H]2[C@@H](O)[C@@H](CO)O[C@@H](O[C@H]3[C@H](O)[C@@H](O)C(O)O[C@@H]3CO)[C@@H]2O)(C(=O)O)C[C@@H]1O` (stereo partly drawn) [3′-SL, 3′-sialyl lactose], the “DTH response compared with control-fed animals” value in the assay with DTH response is reported as “significant increase”. Further, the “Treg percentage (s.e.m.)” value in assay [1] was 2.8 (0.2)* percentage. Also, in the assay with YAC-1 target cells, the “NK cell activity, % lysis At E:T ratio 1:50” value is listed as 1.93 % lysis.
As for lactoneotetraose [LNnT], the “DTH response compared with control-fed animals” value with DTH response is given as “significant increase”. The “Treg percentage (s.e.m.)” value in assay [1] is recorded as 3.2 (0.2) percentage. In addition, the “NK cell activity, % lysis At E:T ratio 1:50” value in the assay with YAC-1 target cells came to 2.14 % lysis.
